Consider nine molecules from patent US8084649B2, “Herbicides” (Syngenta Crop Protection, inc., priority 2007, dated 2011).

What all share (type): in vivo
Test [1] has as its system Alopecurus myosuroides (ALOMY). Nature of the test: Pre-emergence herbicidal activity, glasshouse pot test. Conditions: Alopecurus myosuroides, 480 h, rate 500 g/ha, evaluated after 20 days, read-out: Pre-emergence activity, ALOMY (100=total damage to plant; 0=no damage to plant). The method, then:
(§1) Monocotyledonous and dicotyledonous test plants were sown in sterilised standard soil in pots. After cultivation for one day (pre-emergence) or after 10 days cultivation (post-emergence) under controlled conditions in a glasshouse, the plants were sprayed with an aqueous spray solution derived from the formulation of the technical active ingredient in 0.6 ml acetone and 45 ml formulation solution containing 10.6% Emulsogen EL (Registry number 61791-12-6), 42.2% N-methylpyrrolidone, 42.2% dipropylene glycol monomethyl ether (Registry number 34590-94-8) and 0.2% X-77 (Registry number 11097-66-8). The test plants were then grown in a greenhouse under optimum conditions until, 14 or 15 days later for post-emergence and 20 days for pre-emergence, the test was evaluated (100=total damage to plant; 0=no damage to plant). Alopecurus myosuroides (ALOMY), Avena fatua (AVEFA), Lolium perenne (LOLPE), Setaria faberi (SETFA), Digitaria sanguinalis (DIGSA), Echinochloa crus-galli (ECHCG) Pre-Emergence Activity

Test [2] relates to Avena fatua (AVEFA). Described as above. Conditions: Avena fatua, 480 h, rate 500 g/ha, evaluated after 20 days, read-out: Pre-emergence activity, AVEFA (100=total damage to plant; 0=no damage to plant). The method, then: as §1
For test [3], the system named is Digitaria sanguinalis (DIGSA). The test is described as above. Conditions: Digitaria sanguinalis, 480 h, rate 500 g/ha, evaluated after 20 days, read-out: Pre-emergence activity, DIGSA (100=total damage to plant; 0=no damage to plant). The procedure:
as §1

Test [4] relates to Echinochloa crus-galli (ECHCG). The description is as above. Conditions: Echinochloa crus-galli, 480 h, rate 500 g/ha, evaluated after 20 days, read-out: Pre-emergence activity, ECHCG (100=total damage to plant; 0=no damage to plant). The procedure: as §1
The test system of test [5] is Setaria faberi (SETFA). The description is as above. Conditions: Setaria faberi, 480 h, rate 500 g/ha, evaluated after 20 days, read-out: Pre-emergence activity, SETFA (100=total damage to plant; 0=no damage to plant). The procedure: as §1
Test [6] relates to Alopecurus myosuroides (ALOMY). Nature of the test: Post-emergence herbicidal activity, glasshouse pot test. Conditions: Alopecurus myosuroides, evaluated after 14 or 15 days, read-out: Post-emergence activity, ALOMY (100=total damage to plant; 0=no damage to plant); for pest or weed control at 500 g/ha: rate 500 g/ha; for pest or weed control at 125 g/ha: rate 125 g/ha. The method, then:
as §1, with “Post-Emergence” for “Pre-Emergence”

For test [7], the system named is Avena fatua (AVEFA). Described as above. Conditions: Avena fatua, evaluated after 14 or 15 days, read-out: Post-emergence activity, AVEFA (100=total damage to plant; 0=no damage to plant); for pest or weed control at 500 g/ha: rate 500 g/ha; for pest or weed control at 125 g/ha: rate 125 g/ha. The method, then: as §1, with “Post-Emergence” for “Pre-Emergence”
Test [8] relates to Digitaria sanguinalis (DIGSA). The description is as above. Conditions: Digitaria sanguinalis, evaluated after 14 or 15 days, read-out: Post-emergence activity, DIGSA (100=total damage to plant; 0=no damage to plant); for pest or weed control at 500 g/ha: rate 500 g/ha; for pest or weed control at 125 g/ha: rate 125 g/ha. The procedure:
as §1, with “Post-Emergence” for “Pre-Emergence”

The test system of test [9] is Echinochloa crus-galli (ECHCG). Described as above. Conditions: Echinochloa crus-galli, evaluated after 14 or 15 days, read-out: Post-emergence activity, ECHCG (100=total damage to plant; 0=no damage to plant); for pest or weed control at 500 g/ha: rate 500 g/ha; for pest or weed control at 125 g/ha: rate 125 g/ha. The procedure:
as §1, with “Post-Emergence” for “Pre-Emergence”

In test [10] the test system is Lolium perenne (LOLPE). The test is described as above. Conditions: Lolium perenne, evaluated after 14 or 15 days, read-out: Post-emergence activity, LOLPE (100=total damage to plant; 0=no damage to plant); for pest or weed control at 500 g/ha: rate 500 g/ha; for pest or weed control at 125 g/ha: rate 125 g/ha. The method, then:
as §1, with “Post-Emergence” for “Pre-Emergence”

The test system of test [11] is Setaria faberi (SETFA). Described as above. Conditions: Setaria faberi, evaluated after 14 or 15 days, read-out: Post-emergence activity, SETFA (100=total damage to plant; 0=no damage to plant); for pest or weed control at 500 g/ha: rate 500 g/ha; for pest or weed control at 125 g/ha: rate 125 g/ha. The method, then: as §1, with “Post-Emergence” for “Pre-Emergence”
The subject of test [12] is Lolium perenne (LOLPE). Nature of the test: Pre-emergence herbicidal activity, glasshouse pot test. Conditions: Lolium perenne, 480 h, rate 500 g/ha, evaluated after 20 days, read-out: Pre-emergence activity, LOLPE (100=total damage to plant; 0=no damage to plant). The method, then: as §1

Regarding `CCc1cc(C)cc(CC)c1C1=C(OC(=O)C(C)(C)C)CC(C(C)(C)SC)CC1=O` (centres unmarked) [Compound P52], the pest or weed control at 500 g/ha (in [1]; in the test on Avena fatua (AVEFA) [2]; in [3]; in [4]; with Setaria faberi (SETFA) [5]; in [6]) was 100% in each case. Further, the pest or weed control at 500 g/ha was found to be 90% in the test on Avena fatua (AVEFA) [7]; 90% in test [8]; 90% in test [9]; 100% in the test on Lolium perenne (LOLPE) [10]; 90% in the test on Setaria faberi (SETFA) [11].
Regarding `CCCCCCCCCC(=O)OC1=C(c2c(CC)cc(C)cc2CC)C(=O)CC2(CCOCC2)C1` [Compound P43], the pest or weed control at 500 g/ha (in test [1]; in the test on Avena fatua (AVEFA) [2]; in test [4]; in the test on Lolium perenne (LOLPE) [12]) was 100% in each case. For the same molecule, the pest or weed control at 125 g/ha in test [6] was determined as 100%; in the test on Avena fatua (AVEFA) [7], 100%; in test [8] it was 70%; in [9], 70%; in the test with Lolium perenne (LOLPE) [10] it was 80%; in the test on Setaria faberi (SETFA) [11] it was 70%.
For `C#CCOC1=C(c2c(CC)cc(C)cc2CC)C(=O)CC2(CCOCC2)C1` [Compound P31, 9-(2,6-diethyl-4-methylphenyl)-10-prop-2-ynyloxy-3-oxaspiro[5.5]undec-9-en-8-one], the pest or weed control at 500 g/ha came out at 100% in test [1]; 100% in the test on Avena fatua (AVEFA) [2]; 100% in test [3]; 100% in test [4]; 100% in the test with Lolium perenne (LOLPE) [12]; 90% with Setaria faberi (SETFA) [5]. For the same molecule, the pest or weed control at 125 g/ha in test [6] was found to be 70%; in the test with Avena fatua (AVEFA) [7], 70%; in [8] it was 20%; with Lolium perenne (LOLPE) [10], 50%; in the test with Setaria faberi (SETFA) [11], 60%.
Regarding `CCCCCCCCCCCCCC(=O)OC1=C(c2c(CC)cc(C)cc2CC)C(=O)CC2(CCOCC2)C1` [Compound P42], the pest or weed control at 500 g/ha in [1] was found to be 100%; in the test with Avena fatua (AVEFA) [2], 90%; in test [4], 100%; in the test with Lolium perenne (LOLPE) [12] it was 100%. For the same molecule, the pest or weed control at 125 g/ha in [6] turned out to be 60%; in the test on Avena fatua (AVEFA) [7] it was 40%; in [8], 30%; in test [9], 30%; with Lolium perenne (LOLPE) [10] it was 50%; in the test on Setaria faberi (SETFA) [11], 50%.
Consider `CCc1cc(C)cc(CC)c1C1=C(O)CC(C2CCCO2)CC1=O` (centres unmarked) [Compound T8], for which the pest or weed control at 500 g/ha in [1] was found to be 100%; in the test with Avena fatua (AVEFA) [2] it was 80%; in test [4], 100%; with Lolium perenne (LOLPE) [12], 100%; with Setaria faberi (SETFA) [5] it was 100%; in test [6], 100%. Further, the pest or weed control at 500 g/ha amounted to 90% in the test with Avena fatua (AVEFA) [7]; 90% in [8]; 100% in [9]; 100% in the test with Lolium perenne (LOLPE) [10]; 90% with Setaria faberi (SETFA) [11].
As for `CCOCOC1=C(c2c(CC)cc(C)cc2CC)C(=O)CC2(CCOCC2)C1` [Compound P35], the pest or weed control at 500 g/ha (in test [1]; with Avena fatua (AVEFA) [2]; with Lolium perenne (LOLPE) [12]; in the test on Setaria faberi (SETFA) [5]) was 100% in each case. The pest or weed control at 125 g/ha in test [6] came out at 100%; with Avena fatua (AVEFA) [7] it was 100%; in test [8], 50%; in [9], 100%; with Lolium perenne (LOLPE) [10], 90%; with Setaria faberi (SETFA) [11], 50%.
`C=CCOC1=C(c2c(CC)cc(C)cc2CC)C(=O)CC2(CCOCC2)C1` [Compound P34]: the pest or weed control at 500 g/ha in [1] amounted to 100%; in the test on Avena fatua (AVEFA) [2] it was 70%; in test [4], 30%; in the test with Lolium perenne (LOLPE) [12], 100%; with Setaria faberi (SETFA) [5] it was 30%. Further, the pest or weed control at 125 g/ha in [6] worked out at 0%; in the test on Avena fatua (AVEFA) [7], 0%; in test [8], 30%; in [9], 0%; in the test on Lolium perenne (LOLPE) [10], 0%; in the test with Setaria faberi (SETFA) [11] it was 0%.
With `CCCS(=O)(=O)C(C)CC1CC(=O)C(c2c(CC)cc(C)cc2CC)=C(O)C1` (centres unmarked) [Compound T36], the pest or weed control at 500 g/ha in test [1] was determined as 100%; in the test on Avena fatua (AVEFA) [2], 90%; in test [3] it was 100%; with Lolium perenne (LOLPE) [12] it was 100%; in the test with Setaria faberi (SETFA) [5], 100%; in test [6], 90%. For the same molecule, the pest or weed control at 500 g/ha with Avena fatua (AVEFA) [7] was found to be 90%; in [8], 70%; in test [9], 100%; in the test with Lolium perenne (LOLPE) [10] it was 90%; with Setaria faberi (SETFA) [11] it was 50%.
On to `CCSC(C)CC1CC(=O)C(c2c(C)cc(C)cc2C)=C(O)C1` (centres unmarked) [Compound T9], for which the pest or weed control at 500 g/ha in test [1] is 30%; in the test on Avena fatua (AVEFA) [2], 30%; in test [3], 40%; in the test with Lolium perenne (LOLPE) [12], 0%; in test [6] it was 50%; in the test with Avena fatua (AVEFA) [7], 50%. For the same molecule, the pest or weed control at 500 g/ha in test [8] amounted to 90%; in test [9], 80%; with Lolium perenne (LOLPE) [10], 50%; in the test on Setaria faberi (SETFA) [11] it was 80%.
